Measurements taken from patent US12492173B2, “Herbicidal substituted N-tetrazolyl aryl carboxamides” (Bayer Aktiengesellschaft, priority 2019, dated 2025).

Assays:
Format in all cases: in vivo
Matricaria inodora = assay: Pre-emergence herbicidal action, MATIN; design: key to Herbicidal action against MATIN: % activity: 100 = plants have died, 0 = like control plants; details: for herbicidal activity MATIN: scored visually after 3 weeks vs untreated controls (100% = plants have died)
Summary of the method: (§1)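 Greenhouse pre-emergence test: formulated compound (WP or EC) applied in water to the soil covering sown seeds, 600–800 l/ha, 0.2% wetting agent. Scored visually in percent at 3 weeks versus untreated plants.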

Abutilon theophrasti = assay: Post-emergence herbicidal action, ABUTH; design: key: % herbicidal action vs untreated; 100 = plants died, 0 = like control
Summary of the method: (§2)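 Percent herbicidal effect was judged by eye against untreated controls around 3 weeks after foliar treatment, where 100% meant dead plants. Spraying took place at the one-leaf stage using wettable powder or emulsion concentrate diluted in water (600 to 800 l/ha) with added wetting agent at 0.2%.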

Viola tricolor = assay: Post-emergence herbicidal action, VIOTR; design: key: % herbicidal action vs untreated; 100 = plants died, 0 = like control
Summary of the method: as §2

Stellaria media = assay: Post-emergence herbicidal action, STEME; design: key: % herbicidal action vs untreated; 100 = plants died, 0 = like control
Summary of the method: as §2

Amaranthus retroflexus = assay: Post-emergence herbicidal action, AMARE; design: key: % herbicidal action vs untreated; 100 = plants died, 0 = like control
Summary of the method: as §2

Pharbitis purpurea = assay: Post-emergence herbicidal action, PHBPU
Summary of the method: as §2

Polygonum convolvulus = assay: Pre-emergence herbicidal action, POLCO; details: for herbicidal activity POLCO: dosage 320 g/ha, scored visually after 3 weeks vs untreated controls (100% = plants have died)
Summary of the method: as §1

[1] = comparative experiment, 20 g of a.i./ha
[2] = comparative experiment, post-emergence, 5 g of a.i./ha

Row | SMILES | herbicidal activity MATIN (Matricaria inodora; dosage 320 g/ha) [%] | herbicidal action ABUTH (Abutilon theophrasti; post-emergence, dosage 80 g/ha) [%] | herbicidal action VIOTR (Viola tricolor; post-emergence, dosage 80 g/ha) [%] | herbicidal action STEME (Stellaria media; post-emergence, dosage 80 g/ha) [%] | herbicidal action AMARE (Amaranthus retroflexus; post-emergence, dosage 80 g/ha) [%] | herbicidal action PHBPU (Pharbitis purpurea; post-emergence, dosage 80 g/ha) [%] | herbicidal activity POLCO (Polygonum convolvulus) [%] | herbicidal action ABUTH (Abutilon theophrasti; Dosage 80 g/ha) | herbicidal action VIOTR (Viola tricolor; Dosage 80 g/ha) | herbicidal action STEME (Stellaria media; Dosage 80 g/ha) | herbicidal action AMARE (Amaranthus retroflexus; Dosage 80 g/ha) | herbicidal action PHBPU (Pharbitis purpurea; Dosage 80 g/ha) | further results
1 | Cn1nnnc1NC(=O)c1ccc(C(F)(F)F)c(C[S+](C)[O-])c1Cl (racemic) [Example 1-297] | 100 | 80 | 100 | 100 | 90 | 100 |  |  |  |  |  |  | Herbicidal action against MATIN (Matricaria inodora; [1]): 100; Herbicidal action against PHBPU (Pharbitis purpurea; [2]): 80
2 | Cc1c(C(=O)Nc2nnnn2C)ccc(C(F)(F)F)c1C[S+](C)[O-] (centres unmarked) [Example 1-84] | 100 | 90 | 100 | 100 | 90 | 100 | 90 |  |  |  |  |  | 
3 | Cc1c(C(=O)Nc2nnnn2C)ccc(C(F)(F)F)c1CS(C)(=O)=O [Example 1-85] | 100 |  |  |  |  |  | 90 | 90 | 100 | 100 | 90 | 100 | 
4 | CCSCc1c(C(F)(F)F)ccc(C(=O)Nc2nnnn2C)c1C [Example 1-86] | 100 | 80 | 100 | 100 | 80 | 90 | 100 |  |  |  |  |  | 
5 | CSCc1c(C(F)F)ccc(C(=O)Nc2nnnn2C)c1C [Example 1-107, 4-(difluoromethyl)-2-methyl-3-[(methylsulfanyl)methyl]-N-(1-methyl-1H-tetrazol-5-yl)benzamide] | 100 |  |  |  |  |  | 80 | 80 | 100 | 100 | 90 | 80 | 
6 | Cc1c(C(=O)Nc2nnnn2C)ccc(C(F)F)c1CS(C)(=O)=O [Example 1-109] | 90 |  |  |  |  |  | 90 | 90 | 100 | 100 | 100 | 100 | Herbicidal action against AMARE (Amaranthus retroflexus; [2]): 100
7 | COc1c(C(=O)Nc2nnnn2C)ccc(C(F)(F)F)c1CSC [Example 1-134] | 100 |  |  |  |  |  | 80 | 100 | 100 | 100 | 100 | 100 | Herbicidal action against POLCO (Polygonum convolvulus; [1]): 30; Herbicidal action against VIOTR (Viola tricolor; [2]): 100; Herbicidal action against VIOTR (Viola tricolor; post-emergence, dosage 80 g/ha): 100; Herbicidal action against STEME (Stellaria media; post-emergence, dosage 80 g/ha): 90; Herbicidal action against AMARE (Amaranthus retroflexus; post-emergence, dosage 80 g/ha): 100; Herbicidal action against PHBPU (Pharbitis purpurea; post-emergence, dosage 80 g/ha): 90
8 | CSCc1c(C(F)(F)F)ccc(C(=O)Nc2nnnn2C)c1SC [Example 1-161] | 100 |  |  |  |  |  |  | 90 | 100 | 100 | 100 | 90 | 
9 | CCSCc1c(C(F)F)ccc(C(=O)Nc2nnnn2C)c1SCC [Example 1-191] | 100 |  |  |  |  |  | 100 | 100 | 100 | 100 | 80 | 80 | 
10 | CSCc1c(C(F)(F)F)ccc(C(=O)Nc2nnnn2C)c1F [Example 1-242] | 100 |  |  |  |  |  | 80 | 90 | 100 | 100 | 100 | 100 | 
11 | Cn1nnnc1NC(=O)c1ccc(C(F)(F)F)c(C[S+](C)[O-])c1F (centres unmarked) [Example 1-243] | 100 |  |  |  |  |  |  | 90 | 100 | 100 | 90 | 100 | 
12 | Cn1nnnc1NC(=O)c1ccc(C(F)(F)F)c(CS(C)(=O)=O)c1F [Example 1-244] | 100 |  |  |  |  |  |  | 90 | 100 | 100 | 90 | 100 | 
13 | Cc1ccc(C(=O)Nc2nnnn2C)c(Cl)c1CS(C)(=O)=O [Example 1-289] | 100 |  |  |  |  |  | 80 |  | 100 | 100 | 100 | 90 | 
14 | CSCc1c(C(F)(F)F)ccc(C(=O)Nc2nnnn2C)c1Cl [Example 1-296] | 100 | 100 | 100 | 100 | 100 | 100 |  |  |  |  |  |  | Herbicidal action against VIOTR (Viola tricolor; [2]): 100; Herbicidal action against AMARE (Amaranthus retroflexus; [2]): 60
15 | Cn1nnnc1NC(=O)c1ccc(C(F)(F)F)c(CS(C)(=O)=O)c1Cl [Example 1-298] | 100 | 80 | 100 | 100 | 100 | 100 |  |  |  |  |  |  | Herbicidal action against AMARE (Amaranthus retroflexus; [2]): 100
16 | CCS(=O)(=O)Cc1c(C(F)(F)F)ccc(C(=O)Nc2nnnn2C)c1Cl [Example 1-301] | 100 |  |  |  |  |  | 100 | 80 | 100 | 100 | 80 | 100 | 
17 | C=CCSCc1c(C(F)(F)F)ccc(C(=O)Nc2nnnn2C)c1Cl [Example 1-308] | 100 | 100 | 90 | 100 | 100 | 100 | 100 |  |  |  |  |  | 
18 | CSCc1c(C(F)(F)F)ccc(C(=O)Nc2nnnn2C)c1Br [Example 1-380] | 100 | 90 | 100 | 100 | 80 | 90 |  |  |  |  |  |  | 
19 | Cn1nnnc1NC(=O)c1ccc(C(F)(F)F)c(C[S+](C)[O-])c1Br (centres unmarked) [Example 1-381] | 100 | 100 | 100 | 100 | 100 | 100 | 90 |  |  |  |  |  | 
20 | CCn1nnnc1NC(=O)c1ccc(S(C)(=O)=O)c(CS(C)(=O)=O)c1C [Example 2-39] |  |  |  |  |  |  |  | 90 | 100 | 100 | 100 | 90 | herbicidal action MATIN (Matricaria inodora; dosage 320 g/ha): 100%
21 | CCn1nnnc1NC(=O)c1ccc(C)c(CSC)c1Cl [Example 2-287] | 100 |  |  |  |  |  |  | 80 | 100 | 100 | 90 | 90 | 
22 | CCn1nnnc1NC(=O)c1ccc(C(F)(F)F)c(C[S+](C)[O-])c1Br (centres unmarked) [Example 2-381] | 100 | 90 | 100 | 100 | 90 | 100 |  |  |  |  |  |  | 
23 | CCCn1nnnc1NC(=O)c1ccc(C(F)(F)F)c(CS(=O)(=O)CC)c1C [Example 3-88] | 100 |  |  |  |  |  |  | 80 | 100 | 100 | 80 | 90 | 
24 | CCCn1nnnc1NC(=O)c1ccc(C(F)(F)F)c(C[S+](C)[O-])c1Cl (centres unmarked) [Example 3-297] | 100 | 80 | 100 | 100 | 100 | 90 |  |  |  |  |  |  | 
25 | CCCn1nnnc1NC(=O)c1ccc(C(F)F)c(C[S+]([O-])CC)c1Cl (centres unmarked) [Example 3-324] | 100 |  |  |  |  |  | 100 | 100 | 100 | 100 |  | 100 | 
26 | CCCn1nnnc1NC(=O)c1ccc(C(F)(F)F)c(CSC)c1Br [Example 3-380] | 100 |  |  |  |  |  | 80 | 80 | 100 | 100 |  | 90 | 
